Results as given in publication PMC4177760, “Cytotoxicity of four Aframomum species (A. arundinaceum, A. alboviolaceum, A. kayserianum and A. polyanthum) towards multi-factorial drug resistant cancer cell lines” (BMC Complementary and Alternative Medicine, 2014).
Where two headings read alike, the source gives them in different places.

Columns and labels:
[1] = tested on: drug-sensitive CCRF-CEM leukemia cells; assay: Resazurin reduction assay, CCRF-CEM; format: cell-based, human
Description: (§1) The cell lines used the present work, their origins and their treatments were previously reported. They include drug-sensitive CCRF-CEM and multidrug-resistant P-glycoprotein over-expressing CEM/ADR5000 leukemia cells, the MDA-MB-231-pcDNA3 breast cancer cells and its resistant subline MDA-MB-231-BCRP clone 23), the HCT116 (p53^+/+) colon cancer cells and its knockout clones HCT116 (p53^-/-), the U87MG glioblastoma cells and its resistant subline U87MG.ΔEGFR, HepG2 hepatocarcinoma cells and AML12 normal hepatocytes. The CCRF-CEM and CEM/ADR5000 leukemia cells were maintained in RPMI 1640 medium (Invitrogen) supplemented with 10% fetal calf serum in a humidified 5% CO2 atmosphere at 37°C. Sensitive and resistant cells were kindly provided by Dr. Axel Sauerbrey (Department of Pediatrics, University of Jena, Jena, Germany). The generation of the resistant subline was previously described. Breast cancer cells, transduced with control vector (MDA-MB-231-pcDNA3) or with cDNA for the breast cancer resistance protein BCRP (MDA-MB-231-BCRP clone 23), were maintained under standard conditions as described above for CCRF-CEM cells. Human wild-type HCT116 (p53^+/+) colon cancer cells as well as knockout clones HCT116 (p53^-/-) derived by homologous recombination were a generous gift from Dr. B. Vogelstein and H. Hermeking (Howard Hughes Medical Institute, Baltimore, MD). Human glioblastoma multiforme U87MG cells (non-transduced) and U87MG cell line transduced with an expression vector harboring an epidermal growth factor receptor (EGFR) gene with a genomic deletion of exons 2 through 7 (U87MG.ΔEGFR) were kindly provided by Dr. W. K. Cavenee (Ludwig Institute for Cancer Research, San Diego, CA). MDA-MB-231-BCRP, U87MG.ΔEGFR and HCT116 (p53^-/-) were maintained in DMEM medium containing 10% FBS (Invitrogen) and 1% penicillin (100 U/mL)-streptomycin (100 μg/mL) (Invitrogen) and were continuously treated with 800 ng/mL and 400 μg/mL geneticin, respectively. Human HepG2 hepatocellular carcinoma cells and normal AML12 heptocytes were obtained from the American Type Culture Collection (ATCC, USA). The above medium without geneticin was used to maintain MDA-MB-231, U87MG, HCT116 (p53^+/+), HepG2 and AML12 cell lines. The cells were passaged twice weekly. All experiments were performed with cells in the logarithmic growth phase.
(§2) The cytotoxicity of the studied samples was performed by resazurin reduction assay as we previously described. Briefly, adherent cells at 1x10^4 cells were allowed to attach overnight and then treated with different studied samples. […] For suspension cells, aliquots of 2 × 10^4 cells per well were seeded in 96-well-plates in a final volume of 200 μL. […] The tested concentrations ranges were 0.16 μg/mL to 40 μg/mL for crude extracts and isolated compounds and 0.08 μg/mL to 20 μg/mL for doxorubicin. After 72 h incubation and a resazurin (Sigma-Aldrich, Schnelldorf, Germany) staining, fluorescence was measured on an Infinite M2000 Pro™ plate reader (Tecan, Crailsheim, Germany) using an excitation wavelength of 544 nm and an emission wavelength of 590 nm. Each assay was done at least two times, with six replicates each. IC50 values represent the sample’s concentrations required to inhibit 50% of cell proliferation and were calculated from a calibration curve by linear regression using Microsoft Excel.

[2] = tested on: AML12 normal hepatocytes; assay: Resazurin reduction assay, AML12; format: cell-based; details: 72 h
Description: as §1, §2

[3] = tested on: U87MG glioblastoma cells; assay: Resazurin reduction assay, U87MG; format: cell-based, human; details: 72 h
Description: as §1, §2

[4] = tested on: multidrug-resistant P-glycoprotein over-expressing CEM/ADR5000 leukemia cells; assay: Resazurin reduction assay, CEM/ADR5000; format: cell-based, human; details: for IC50: CEM/ADR5000, 72 h; for degree of resistance: IC50 CEM/ADR5000 divided by IC50 CCRF-CEM
Description: as §1, §2

[5] = tested on: HepG2 hepatocarcinoma cells; assay: Resazurin reduction assay, HepG2; format: cell-based, human; details: HepG2, 72 h
Description: as §1, §2

[6] = tested on: U87MG.ΔEGFR glioblastoma cells; assay: Resazurin reduction assay, U87MG.ΔEGFR; format: cell-based, human; details: for IC50: U87MG.ΔEGFR, 72 h; for degree of resistance: IC50 U87MG.ΔEGFR divided by IC50 U87MG
Description: as §1, §2

[7] = tested on: HCT116 (p53+/+) colon cancer cells; assay: Resazurin reduction assay, HCT116 p53+/+; format: cell-based, human
Description: as §1, §2

[8] = tested on: MDA-MB-231-BCRP clone 23 breast cancer cells; assay: Resazurin reduction assay, MDA-MB-231-BCRP; format: cell-based; details: for degree of resistance: IC50 MDA-MB-231-BCRP divided by IC50 MDA-MB-231; for IC50: 72 h
Description: as §1, §2

[9] = tested on: MDA-MB-231-pcDNA3 breast cancer cells; assay: Resazurin reduction assay, MDA-MB-231; format: cell-based; details: MDA-MB-231, 72 h
Description: as §1, §2

[10] = tested on: HCT116 (p53-/-) colon cancer cells; assay: Resazurin reduction assay, HCT116 p53-/-; format: cell-based, human; details: for IC50: HCT116 p53-/-, 72 h; for degree of resistance: IC50 HCT116 p53-/- divided by IC50 HCT116 p53+/+
Description: as §1, §2

[11] = tested on: nine cancer cell lines, sensitive and MDR phenotypes; assay: Resazurin reduction assay, all tested cancer cell lines; format: cell-based; details: read-out: IC50 values on all tested cancer cell lines
Description: The cell lines used the present work, their origins and their treatments were previously reported. They include drug-sensitive CCRF-CEM and multidrug-resistant P-glycoprotein over-expressing CEM/ADR5000 leukemia cells, the MDA-MB-231-pcDNA3 breast cancer cells and its resistant subline MDA-MB-231-BCRP clone 23), the HCT116 (p53^+/+) colon cancer cells and its knockout clones HCT116 (p53^-/-), the U87MG glioblastoma cells and its resistant subline U87MG.ΔEGFR, HepG2 hepatocarcinoma cells and AML12 normal hepatocytes. The CCRF-CEM and CEM/ADR5000 leukemia cells were maintained in RPMI 1640 medium (Invitrogen) supplemented with 10% fetal calf serum in a humidified 5% CO2 atmosphere at 37°C. Sensitive and resistant cells were kindly provided by Dr. Axel Sauerbrey (Department of Pediatrics, University of Jena, Jena, Germany). The generation of the resistant subline was previously described. […]
The cytotoxicity of the studied samples was performed by resazurin reduction assay as we previously described. […] After 72 h incubation and a resazurin (Sigma-Aldrich, Schnelldorf, Germany) staining, fluorescence was measured on an Infinite M2000 Pro™ plate reader (Tecan, Crailsheim, Germany) using an excitation wavelength of 544 nm and an emission wavelength of 590 nm. […]

[12] = tested on: human promyeloleukemia cell line HL-60; set-up: method as in PMID 14505793, PMID 12832847, PMID 16310358; details: HL-60, via a transient induction of caspase-3/CPP32 activity; cited from earlier work
[13] = single concentration 40 μg/mL, 72 h, preliminary test
[14] = Homo sapiens, U-87 MG, read-out: IC50
[15] = Homo sapiens, HCT-116, 72 h, read-out: IC50
[16] = Homo sapiens, HCT-116, read-out: IC50
[17] = Homo sapiens, CCRF-CEM, 72 h; read-out: IC50
[18] = MDA-MB-231-BCRP, read-out: IC50

Molecule | Growth percentage (growth proliferation) of CCRF-CEM cells [1, 13] | IC50 ([2]; Mus musculus, read-out: IC50) [µg/mL] | IC50 [3, 14] [µg/mL] | IC50 ([4]; Homo sapiens, read-out: IC50) [µg/mL] | degree of resistance [4] | IC50 ([5]; Homo sapiens, read-out: IC50) [µg/mL] | IC50 ([6]; Homo sapiens, read-out: IC50) [µg/mL] | IC50 [7, 15] [µg/mL] | degree of resistance [8] | IC50 ([9]; Homo sapiens, read-out: IC50) [µg/mL] | IC50 [10, 16] [µg/mL] | IC50 [1, 17] [µg/mL] | further results
1,4-dihydroxybenzene [Compound 7] | more than 50% | – | – | – | – | – | – | – | – | – | – | – | –
CC1(C)CCC[C@@]2(C)[C@H]1CC[C@@]1(CO1)[C@@H]2C/C=C(/C=O)CC=O [Compound 1, aframodial] | more than 50% | – | – | – | – | – | – | – | – | – | – | – | –
C=C1CCC2C(C)(C)CCCC2(C)C1CC=C(C=O)CC=O (stereo not drawn) [Compound 2, 8(17),12-labdadien-15,16-dial] | more than 50% | – | – | – | – | – | – | – | – | – | – | – | –
CC1(C)CCCC2(C)C1CCC1(CO1)C2CC=C1CCOC1=O (stereo not drawn) [Compound 3, galanolactone] | more than 50% | – | – | – | – | – | – | – | – | – | – | – | –
CC1(C)CCCC2(C)C1CCC1(C=O)C(O)CC(C=O)=CCC21 (stereo not drawn) [Compound 4, galanal A] | 47.78% | > 40 | > 40 | > 40 | > 2.31 | > 40 | > 40 | > 40 | < 0.70 | > 40 | > 40 | – | IC50 ([1]; Homo sapiens, CCRF-CEM, 72 h, CCRF-CEM, read-out: IC50): 17.3 ± 1.96 µg/mL; IC50 ([8]; MDA-MB-231/BCRP, MDA-MB-231-BCRP, read-out: IC50): 28 ± 2.39 µg/mL
CC1(C)CCCC2(C)C1CCC1(C=O)C(O)CC(C=O)=CCC21 (stereo not drawn) [Compound 5, galanal B] | 49.81% | – | – | – | > 2.02 | – | – | – | – | – | – | – | IC50 [2]: - ((-): >40 μg/mL); IC50 ([1]; CCRF-CEM, 72 h): 19.81 ± 2.01 µg/mL; IC50 [3]: - ((-): >40 μg/mL); IC50 [4]: - ((-): >40 μg/mL); IC50 [5]: - ((-): >40 μg/mL); IC50 [6]: - ((-): >40 μg/mL); IC50 ([7]; 72 h): - ((-): >40 μg/mL); IC50 ([8]; MDA-MB-231-BCRP): - ((-): >40 μg/mL); IC50 [9]: - ((-): >40 μg/mL); IC50 [10]: - ((-): >40 μg/mL)
CC1=CC(O)C(C(C)C)CC1O (stereo not drawn) [Compound 6, 1-p-menthene-3,6-diol] | more than 50% | – | – | – | – | – | – | – | – | – | – | – | –
O=C1C[C@@H](c2ccc(O)cc2)Oc2cc(O)cc(O)c21 [Compound 8, naringenin] | 38.49% | > 40 | 29.8 ± 1.88 | 7.86 ± 0.74 | 0.64 | 23.5 ± 1.95 | 18 ± 1.34 | 13.7 ± 1.11 | 1.91 | 9.51 ± 1.03 | 13.9 ± 0.94 | 12.2 ± 1.87 | IC50 [11]: < 40 µg/mL; apoptosis induction [12]: induced apoptosis; degree of resistance [6]: 0.60; IC50 [8, 18]: 18.1 ± 2.01 µg/mL; degree of resistance [10]: 1.02
COc1ccc(-c2oc3cc(OC)cc(O)c3c(=O)c2OC)cc1 [Compound 9, kaempferol-3,7,4’-trimethylether] | 39.58% | > 40 | > 40 | 18.2 ± 1.18 | 0.99 | > 40 | > 40 | > 40 | < 0.83 | > 40 | 36.7 ± 2.31 | 18.4 ± 2.04 | IC50 ([8]; MDA-MB-231/BCRP): 33.1 ± 2.64 µg/mL
COc1cccc2c1C(=O)c1c(O)c3c(c(O)c1C2=O)C[C@@](O)(C(=O)CO)C[C@@H]3O[C@H]1C[C@H](N)[C@H](O)[C@H](C)O1 [Doxorubucin, Doxorubicin, reference compound] | – | > 40 | 1.06 ± 0.03 | > 20 | 1772 | 1.41 ± 0.12 | 6.11 ± 0.04 | 1.43 ± 0.02 | 7.11 | 1.1 ± 0.01 | 4.06 ± 0.04 | 0.11 ± 0.01 | IC50 ([11]; all nine tested cancer cell lines): < 40 µg/mL; degree of resistance [6]: 5.76; IC50 [8, 18]: 7.83 ± 0.01 µg/mL; degree of resistance [10]: 2.84
